Measurements as given in publication PMC5402304, “Oxoaporphine Metal Complexes (Co^II, Ni^II, Zn^II) with High Antitumor Activity by Inducing Mitochondria-Mediated Apoptosis and S-phase Arrest in HepG2” (Scientific Reports, 2017).

What was measured:
MGC80-3 = test: MTT cytotoxicity assay, MGC80-3; type: cell-based, human; conditions: for inhibitive ratio: MGC80-3, 20 μmol/L, 48 h; for IC50: MGC80-3, 48 h, MTT
Procedure: (§1) The in vitro cytotoxicity of OD, 1–3 and the corresponding metal salts were determined by MTT assay towards a panel of human tumor cells including HepG2, T-24, BEL-7404, MGC80-3, SK-OV-3/DDP and normal HL-7702 cells. As the positive control, cisplatin was dissolved at a concentration of 1 mM in 0.154 M NaCl[32].
(§2) The human tumor cell lines (BEL-7404, HepG2, MGC80–3, T-24, SK-OV-3/DDP and HeLa cells) and the human normal liver cell line HL-7702 were obtained from Shanghai Cell Bank in Chinese Academy of Sciences. Cells were cultured in Dulbecco’s modified Eagle’s medium (DMEM) or RPMI-1640 medium, which supplemented with 10% fetal bovine serum (FBS) and 100 U/mL penicillin and streptomycin. Cells were cultured at 37 °C in a humidified atmosphere with 5% CO2/95% air. Tested compounds (2.0 mM) were prepared as DMSO stock solution before they were diluted to working concentrations by PBS buffer (containing 0.5% DMSO), while cisplatin dissolved in 0.9% sodium chloride solution was used as positive controls.
(§3) Cells in their logarithmic phase were seeded in 96-well plates with 5.5 × 10^3/180 μL per well for 24 h. Then 20 μL of compounds at various concentrations were added to each well to achieve final concentrations of 1.25, 2.5, 5.0, 10.0, and 20.0 μM. All the cells were incubated with test compounds for another 48 h before MTT assay. Control wells contained media with 0.5% DMSO. After 48 h of cultivation, 10 μL of MTT (5 mg/mL in PBS) was added to each well, and cells were incubated at 37 °C for 6 h. The contents in the wells were pipetted out carefully, and the formazan crystals formed were dissolved in 100 μL of DMSO, and the absorbance was measured by enzyme labeling instrument with 490 nm/630 nm double wavelength measurement. The IC50 value was defined as a drug concentration killing 50% cells in comparison with untreated controls, which was calculated by the Bliss method (n = 5). All tests were repeated in at least three independent trials.

SK-OV-3/DDP = test: MTT cytotoxicity assay, SK-OV-3/DDP; type: cell-based, human; conditions: 48 h; for inhibitive ratio: SKOV-3/DDP, 20 μmol/L; for IC50: SK-OV-3/DDP, MTT
Procedure: as §1, §2, §3

T-24 = test: MTT cytotoxicity assay, T-24; type: cell-based, human; conditions: for inhibitive ratio: T-24, 20 μmol/L, 48 h; for IC50: T-24, 48 h, MTT
Procedure: as §1, §2, §3

BEL-7404 = test: MTT cytotoxicity assay, BEL-7404; type: cell-based, human; conditions: for inhibitive ratio: BEL-7404, 20 μmol/L, 48 h; for IC50: BEL-7404, 48 h, MTT
Procedure: as §1, §2, §3

HL-7702 = test: MTT cytotoxicity assay, normal liver cells HL-7702; type: cell-based, human; conditions: 48 h; for inhibitive ratio: HL-7702, 20 μmol/L; for IC50: HL-7702 normal liver cells, MTT
Procedure: as §1, §2, §3

HepG2 [1] = test: MTT cytotoxicity assay, HepG2; type: cell-based, human; conditions: for inhibitive ratio: HepG2, 20 μmol/L, 48 h; for IC50: HepG2, 48 h, MTT
Procedure: as §1, §2, §3

[2] = Body weight of mice in the HepG2 xenograft model; type: in vivo, BALB/c nude mice; conditions: 2.0 mg/kg ip every two days; permissible value 20%
Procedure: To further evaluate the in vivo antitumor efficacy of these complexes, 3 was selected to inhibit tumor growth in a HepG2 xenografts model. The mice were randomized into control group, 3-treated groups and positive control group (n = 6). Once the tumor had grown to an average volume of about 100 mm^3, two group of nude mice were injected intraperitoneally (ip) of 3 at a high dose (6.0 mg/kg) and a low (3.0 mg/kg) dose daily for 20 days, respectively. Cisplatin was used as positive control injected at 2.0 mg/kg every two days, while control group received solvents only.
BALB/c nude mice (male, 17–20 g, 5–6 weeks old) were supplied by Guangxi Medical University Laboratory Animal Centre (Guangxi, China, approval no. SCXK 2014–0002 and SYXK 2014–0003). All of the experimental procedures were carried out according to the NIH Guidelines for the Care and Use of Laboratory Animals. Animal experiments were approved by the Animal Care and Use Committee of Guangxi Medical University. Animal were housed at IVC system (individual ventilated caging) with conditions of constant photoperiod (12 h light/12 h dark at 25−28 °C and 45−65% humidity). The xenograft tumor model was established in the same way as we reported before. […]
The tumor volumes and body weight were measured every 3 days, and tumor size was calculated as volume = (w^2l)/2, where w is the width and l is the length in mm of tumor[70]. […]

HepG2 xenograft = HepG2 xenograft nude mice model, tumor growth inhibition; type: in vivo, BALB/c nude mice; conditions: 2.0 mg/kg ip every two days
Procedure: BALB/c nude mice (male, 17–20 g, 5–6 weeks old) were supplied by Guangxi Medical University Laboratory Animal Centre (Guangxi, China, approval no. SCXK 2014–0002 and SYXK 2014–0003). All of the experimental procedures were carried out according to the NIH Guidelines for the Care and Use of Laboratory Animals. Animal experiments were approved by the Animal Care and Use Committee of Guangxi Medical University. Animal were housed at IVC system (individual ventilated caging) with conditions of constant photoperiod (12 h light/12 h dark at 25−28 °C and 45−65% humidity). The xenograft tumor model was established in the same way as we reported before[30]. The maximum solubility of 3 in DMSO/saline solvent (v/v, 5/100) with administration volume 0.8 mL/20 g was used as the high dose (6.0 mg/kg) group (n = 6). Meanwhile low dose group mice got 3.0 mg/kg, intraperitoneal injection every day, and the control group received corresponding solvent. The positive control group was administered with cisplatin at 2.0 mg/kg every two days by intraperitoneal injection (cisplatin dissolved in saline).
The tumor volumes and body weight were measured every 3 days, and tumor size was calculated as volume = (w^2l)/2, where w is the width and l is the length in mm of tumor[70]. On day 21, the mice were sacrificed, and the tumor tissue was dissected out and weighted. The in vivo antitumor activity is evaluated by two indicators[71][72]: the tumor relative increment rate (T/C = TRTV/CRTV × 100%) and tumor weight inhibition rate [IR = (Wc − Wt)/Wc × 100%,], where TRTV and CRTV were the RTV of treated group and control group, respectively (RTV: relative tumor volume, RTV = Vt /V0); Wt and Wc are the average tumor weight of complex-treated and vehicle controlled group, respectively.

caspase-8 = test: Caspase-8 activation by flow cytometry (CaspGLOW); type: cell-based, human; conditions: HepG2, 1.0 μM, 24 h; control 1.8%
Procedure: (§4) Caspase family is closely related to the cell apoptosis via the mitochondrial pathway, especially caspases-3, -8 and -9. To better understand the antitumor mechanisms, it needs to confirm whether caspase-3, -8 and -9 are activated when the tumor cells are treated with 1–3.
(§5) The measurement of caspase-3, -8 and -9’s activities was performed by CaspGLOW fluorescein active caspase-3, -8 and -9 staining kit. HepG2 cells were treated with 1 μM 1–3 for 24 h, harvested at a density of 1 × 10^6 cells/mL, and then suspended in 300 μL volume with PBS. To the suspension, 1 μL of caspase-3 inhibitor (FITC-DEVD-FMK), caspase-8 inhibitor (FITC-IETD-FMK) or caspase-9 inhibitor (FITC-LEHD-FMK) was consequently added and incubated for 1 h at 37 °C in 5% CO2 incubator. The cells were then examined by a FACSAria II flow cytometer equipped with a 488 nm argon laser. The results were represented as the percent change on the activity compared with the control.

HepG2 cells = test: Comet assay for DNA damage; type: cell-based, human; set-up: unit not given here; conditions: HepG2, 1.0 μM, 24 h
Procedure: After the observation of significant S-phase arrest caused by 1–3, the study of DNA damage assay is necessary. The single cell gel electrophoresis technique (comet assay) is a simple, sensitive, reliable, and rapid method to detect DNA damage in eukaryotic cell[39]. As shown in Table 3 and Fig. 6, 1–3 at 1.0 μM induced DNA damage (fragmentation or unwinding) appeared as fluorescent comets with remarkable increase of tails size, especially for 3.
The comet assay is a simple method for measuring DNA strand breaks in cells. The comet assay reagent kit was purchased from Trevigen, and the experiment was carried out according to the manufacturer’s instructions. After treatment with OD and 1–3 at 1.0 μM, HepG2 cells were harvested and suspended at 1 × 10^6 Hep-G2 cells/mL in PBS. The cells suspension was mixed with melted LM agarose at a ratio of 1:10 (v/v). An aliquot (75 μL) of the mixture was immediately pipetted onto the slide (Comet Slide TM). After refrigeration for 30 min, the slide was immersed in pre-chilled lysis solution and left on ice for 60 min, followed by immersing in freshly prepared alkaline solution (300 mM NaOH, 1 mM EDTA, pH > 13) for 60 min on ice in darkness. After DNA unwinding, the slide was subjected to alkaline solution for electrophoresis in a Savant ps 250 system set at 300 mA and 1 volt/cm for 30 min. After electrophoresis, the slide was rinsed with distilled H2O, fixed in 70% ethanol for 5 min and air-dried overnight. DNA was stained with SYBR Green I (Trevigen) and visualized under a fluorescence microscope (Nikon, Eclipse E600).

caspase-9 = test: Caspase-9 activation by flow cytometry (CaspGLOW); type: cell-based, human; conditions: HepG2, 1.0 μM, 24 h; control 1.9%
Procedure: as §4, §5

HepG2 [3] = test: Cell apoptosis assay by flow cytometry, Annexin V-FITC/PI; type: cell-based, human; conditions: HepG2, 5.0 μM, 24 h
Procedure: The quantitative analysis of apoptotic HepG2 induced by 1–3 (1.0, 2.0 and 5.0 μM) and their corresponding metal salts (5.0 μM) after 24 h treatment, were investigated by flow cytometry and Annexin V-FITC/PI double staining. As depicted in Figs 7 and S6, 1–3 caused a significant increase in apoptotic cells comparing to the untreated cells.
Cell cycle progression and apoptosis were determined by flow cytometric analysis. (a) Cell cycle arrest assay: HepG2 cells in their logarithmic phase were plated into 50 mL plates at a final density of 5−6 × 10^6 cells/well overnight, then they were treated with various doses (0.25, 0.5 and 1.0 μM) of 1–3 for another 24 h. Cells were trypsinized, collected, and fixed in ice-cold 75% ethanol at −20 °C overnight. After centrifugation, the fixed cells were rinsed with ice-cold phosphate buffered saline (PBS), and resuspended in 0.5 mL of PBS containing 100 μg/mL RNase, 50 μg/mL propidium iodide (PI) in the dark for 5−10 min. The cell cycle distribution was analyzed by FACS Calibur flow cytometer (BD) and calculated using ModFIT LT software. (b) Apoptosis assay: 1 × 10^5 HepG2 cells were plated in 6-well plates, after incubation for 24 h with complexes 1–3 at 1.0, 2.0 and 5.0 μM, cells were collected, and Apoptosis Detection kit FITC Annexin V was used to analyze the cell apoptosis according to the manufacturer’s instructions.

caspase-3 = test: Caspase-3 activation by flow cytometry (CaspGLOW); type: cell-based, human; conditions: HepG2, 1.0 μM, 24 h; control 4.2%
Procedure: as §4, §5

Compound | inhibitive ratio (MGC80-3) | inhibitive ratio (SK-OV-3/DDP) | inhibitive ratio (T-24) | inhibitive ratio (BEL-7404) | inhibitive ratio (HL-7702) | inhibitive ratio (HepG2 [1]) | IC50 (MGC80-3) | IC50 (SK-OV-3/DDP) | IC50 (T-24) | IC50 (BEL-7404) | IC50 (HL-7702) | IC50 (HepG2 [1]) | proportion of activated caspase-8 (caspase-8) | Comet length (HepG2 cells) | Olive tail moment (HepG2 cells) | Tail length (HepG2 cells) | Tail moment (HepG2 cells) | proportion of activated caspase-9 (caspase-9) | population of apoptotic cells (HepG2 [3]) | proportion of activated caspase-3 (caspase-3) | other results
[Co+2].[O-][Cl+3]([O-])([O-])[O-].[O-][Cl+3]([O-])([O-])[O-] [Co(ClO4)2, reference compound] | 24.74±0.03% | 21.74±0.03% | 36.23±0.09% | 23.29±0.09% | 45.91±0187% | 32.87±0.13% | – | – | – | – | – | – | – | – | – | – | – | – | – | – | –
[Ni+2].[O-][Cl+3]([O-])([O-])[O-].[O-][Cl+3]([O-])([O-])[O-] [Ni(ClO4)2, reference compound] | 16.35±0.09% | 11.25±0.12% | 37.86±0.19% | 32.31±0.07% | 50.14±0.06% | 32.57±0.29% | – | – | – | – | – | – | – | – | – | – | – | – | – | – | –
[O-][Cl+3]([O-])([O-])[O-].[O-][Cl+3]([O-])([O-])[O-].[Zn+2] [Zn(ClO4)2, reference compound] | 17.63±0.07% | 12.33±0.05% | 28.19±0.13% | 24.07±0.15% | 43.18±0.19% | 30.94±0.39% | – | – | – | – | – | – | – | – | – | – | – | – | – | – | –
N.N.[Cl][Pt][Cl] [cisplatin, reference compound] | 65.58±0.09% | 15.13±0.07% | 75.26±1.00% | 76.07±2.68% | 68.96±1.34% | 71.93±0.83% | 16 ± 1.53 µM | 66 ± 1.53 µM | 7.48 ± 0.26 µM | 10 ± 0.53 µM | 5.18 ± 0.68 µM | 7.72 ± 0.83 µM | – | – | – | – | – | – | – | – | drop in body weight [2]: 25.8%; IR (tumor weight inhibition rate) (HepG2 xenograft): 65.8%
[Co(OD)2(H2O)2](ClO4)2 [Complex 1] | 61.54±0.33% | 78.17±1.69% | 85.35±0.73% | 63.96±0.78% | 56.73±0.14% | 88.34± 1.03% | 1.38 ± 0.14 µM | 0.26 ± 0.03 µM | 0.45 ± 0.17 µM | 8.98 ± 0.15 µM | 8.11 ± 0.55 µM | 0.66 ± 0.11 µM | 35.3% | 65.45 ± 6.54 | 3.67 ± 2.09 | 8.01 ± 4.98 | 4.65 ± 1.34 | 27.7% | 33.1% | 45.1% | –
[Ni(OD)2(CH3OH)2](ClO4)2 [Complex 2] | 71.86±0.28% | 84.44±0.65% | 82.31±0.60% | 69.38±0.65% | 72.34±0.22% | 87.68 ±0.92% | 2.86 ± 0.29 µM | 0.18 ± 0.03 µM | 0.23 ± 0.13 µM | 9.66 ± 0.35 µM | 5.35 ± 0.34 µM | 0.2 ± 0.09 µM | 36.7% | 99.56 ± 10.57 | 20.56 ± 7.54 | 45.69 ± 8.27 | 29.52 ± 8.66 | 36.0% | 26.1% | 39.9% | –
